Paper PMC7549094 (Journal of Medicinal Chemistry, 2020)
Converted amounts (≈) assume the structure as drawn. Read-outs that look alike come from different tables or passages of the source.

Legend:
[1] = mouse plasma; oral administration of 1; dose-normalized AUC
Description: In Vivo PK Studies in Mice.
(§1) The solution was filtered using a 0.45 m syringe filter before dosing. Two male Balb/c mice were administered 1 intravenously via the lateral tail
(§2) vein at 5 mg/kg with a dose volume of 2.0 mL/kg. 1 was also formulated in a suspension of 0.5%
(§3) methylcellulose with 0.5% Tween 80 (0.5% MC/0.5% Tw80) in water at 2.5 mg/mL. A group of mice
(§4) (n=3) were administered 1 orally via gavage at 20 mg/kg with a dose volume of 8.0 mL/kg.
(§5) The mouse blood samples were centrifuged to separate plasma and the plasma samples were frozen at -
In Vivo PK Studies in Rats.
Two male Wistar rats were administered
(§6) 1 intravenously via the lateral tail vein at 3 mg/kg with a dose volume of 1.0 mL/kg. 1 was also formulated
(§7) in a suspension of 0.5% methylcellulose with 0.5% Tween 80 (0.5% MC/0.5% Tw80) in water at 2.0
(§8) mg/mL. The second group of rats (n=3) were administered 1 orally via gavage at 10 mg/kg in suspension
(§9) with a dose volume of 5.0 mL/kg. Six blood samples of 100 μL each were collected serially from each
(§10) animal via the saphenous vein up to 24 hours after dosing. The rat blood samples were centrifuged to
(§11) separate plasma and the plasma samples were frozen at -20°C until analysis.
In Vivo PK Studies in Dogs.
(§12) The solution was filtered using a 0.45 m syringe filter before dosing. Three male Beagle dogs were administered 1 intravenously via saphenous
(§13) vein at 0.3 mg/kg with a dose volume of 0.1 mL/kg. 1 was also formulated in a suspension of 0.5%
(§14) methylcellulose with 0.5% Tween 80 (0.5%MC/0.5% Tween 80) in water at 1.0 mg/mL. The second
(§15) group of male dogs (n=2) were administered 1- orally via gavage at 1.0 mg/kg with a dose volume of 1.0
(§16) mL/kg. Seven blood samples of 250 µL each were collected serially from each animal via the jugular vein
(§17) The dog blood samples were centrifuged to separate plasma and the plasma
(§18) samples were frozen at -20 °C until analysis.

[2] = pharmacokinetics in cynomolgus monkey; type: in vivo; settings: monkey plasma; oral administration of 1; dose-normalized AUC
Description: In Vivo Intravenous PK Study in Non-human Primates. The IV PK study in non-human primates was carried out at Covance research facility in Greenfield, Indiana. The research facility is accredited by AAALAC (Association for Assessment and Accreditation of Laboratory Animal Care). The male Cynomolgus monkeys were approximately 4.5 years of age and weighed 4.2 to 5.0 kg. 1 was administered […]
75% polyethylene glycol (PEG300) as described in the earlier section. Doses were administered once by intravenous injection via the saphenous vein at a dose of 0.3 mg/kg with a dosing volume of 0.1 ml/kg.
Clinical observations and food consumption determinations were performed on all animals. Blood samples for PK analysis were collected from all animals via the femoral vein approximately 0.083, 0.25, […]
In Vivo Oral PK Study in Non-human Primates. The PO PK study in non-human primates was conducted at a Novartis facility using Non-naïve male Cynomolgus monkeys weighing 3.8 to 4.0 kg. The monkeys were fasted overnight and fed 2 hours post-dose. 1 was formulated in a suspension of 0.5% […]
gavaged with 5 mL/kg of the suspension for a total dose of 10 mg/kg. The gavage tubing was flushed with 5 mL of water to ensure the gavage tubing was cleared of the formulation. Blood samples for PK analysis were collected from all animals via the saphenous veins approximately 0.25, 0.5, 1, 2, 4, 7, 24, 48, and 72 hours post-dose.

[3] = pharmacokinetics, summary across preclinical species; type: in vivo, rat, dog, cynomolgus monkey; settings: mouse, rat, and monkey plasma; single oral dose of 1
[4] = metabolite profile in human hepatocytes; type: in vitro ADME; settings: 10 μM of 1 for 4 h, UV 250 nm, normalized to largest peak
[5] = metabolite profile in monkey hepatocytes; type: in vitro ADME; settings: 10 μM of 1 for 4 h, UV 250 nm, normalized to largest peak
[6] = dog plasma; oral administration of 1; dose-normalized AUC
Description: In Vivo PK Studies in Mice.
as §1, §2, §3, §4, §5
In Vivo PK Studies in Rats.
Two male Wistar rats were administered
as §6, §7, §8, §9, §10, §11
In Vivo PK Studies in Dogs.
as §12, §13, §14, §15, §16, §17, §18

[7] = metabolite profile in dog hepatocytes; type: in vitro ADME; settings: 10 μM of 1 for 4 h, UV 250 nm, normalized to largest peak
[8] = metabolite profile in rat hepatocytes; type: in vitro ADME; settings: 10 μM of 1 for 4 h, UV 250 nm, normalized to largest peak
[9] = rat plasma; oral administration of 1; dose-normalized AUC
[10] = target: wild-type (PSMB4^WT) L. tarentolae proteasome (Leishmania tarentolae, UniProt A0A640KTY7+A0A640KW57); assay: chymotrypsin-like activity of purified wild-type L. tarentolae proteasome; type: biochemical; settings: n = 3 technical replicates
[11] = microsomal extraction ratio, 1 h incubation in microsomes
[12] = tested on: intramacrophage L. donovani amastigotes; assay: L. donovani amastigote proliferation within primary mouse macrophages; type: cell-based; settings: Leishmania donovani, Macrophage
[13] = microsomal extraction ratio, 1 h incubation in microsomes; remark: listed apart in the source
[14] = high-throughput solubility pH 6.8; type: physicochemical; settings: high-throughput assay format, read-out: HT sol. pH 6.8
[15] = microsomal extraction ratio, 1 h incubation in microsomes; remark: listed apart in the source
[16] = target: T1, purified L. donovani proteasome (Leishmania donovani, UniProt A0A3Q8IIY4+A0A3S7XA80); assay: chymotrypsin-like activity of purified L. donovani proteasome; type: biochemical; settings: half-maximum inhibition of chymotrypsin-like activity of purified L. donovani proteasome; mean, n = 4 technical replicates
T1 sequence (A0A3Q8IIY4 100-302): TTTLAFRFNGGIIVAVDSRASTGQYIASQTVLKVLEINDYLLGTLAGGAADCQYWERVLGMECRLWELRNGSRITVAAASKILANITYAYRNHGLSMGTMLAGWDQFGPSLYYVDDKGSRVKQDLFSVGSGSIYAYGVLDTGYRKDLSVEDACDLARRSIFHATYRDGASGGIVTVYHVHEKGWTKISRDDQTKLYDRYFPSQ
T1 sequence (A0A3S7XA80 1-206): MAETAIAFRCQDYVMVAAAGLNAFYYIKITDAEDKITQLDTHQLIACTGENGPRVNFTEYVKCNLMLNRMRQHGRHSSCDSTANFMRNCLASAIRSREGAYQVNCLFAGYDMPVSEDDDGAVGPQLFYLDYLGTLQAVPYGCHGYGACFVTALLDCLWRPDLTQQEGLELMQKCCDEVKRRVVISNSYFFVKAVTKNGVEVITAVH

[17] = metabolite profile in mouse hepatocytes; type: in vitro ADME; settings: 10 μM of 1 for 4 h, UV 250 nm, normalized to largest peak
[18] = microsomal extraction ratio, 1 h incubation in microsomes; remark: listed apart in the source

wild-type (PSMB4^WT) L. tarentolae proteasome, sequence (A0A640KW57 100-302): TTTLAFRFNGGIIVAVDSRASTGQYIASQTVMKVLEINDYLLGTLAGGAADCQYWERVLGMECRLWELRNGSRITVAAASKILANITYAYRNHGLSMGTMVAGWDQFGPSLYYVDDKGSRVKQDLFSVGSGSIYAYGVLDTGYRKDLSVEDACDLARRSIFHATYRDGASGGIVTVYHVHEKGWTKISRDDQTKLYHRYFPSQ
wild-type (PSMB4^WT) L. tarentolae proteasome, sequence (A0A640KTY7 1-206): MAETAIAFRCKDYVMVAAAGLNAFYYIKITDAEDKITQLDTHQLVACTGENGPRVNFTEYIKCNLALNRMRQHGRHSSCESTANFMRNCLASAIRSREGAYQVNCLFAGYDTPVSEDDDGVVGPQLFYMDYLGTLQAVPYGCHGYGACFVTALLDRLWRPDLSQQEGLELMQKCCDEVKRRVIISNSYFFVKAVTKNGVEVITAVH

Compound | metabolite exposure relative to 1 [1] [%] | metabolite exposure relative to 1 [2] [%] | metabolite exposure relative to 1 [3] | abundance human [4] | abundance monkey [5] | abundance dog [7] | abundance rat [8] | metabolite exposure relative to 1 [9] [%] | EC50 [12] [µM] | ER human [13] | solubility kinetic [14] [µM] | ER dog [15] | IC50 [16] [µM] | other results
Cc1cccnc1-c1cnc2nc(-c3cc(NC(=O)c4oc(CO)nc4C)ccc3F)nn2c1 [compound 8] | 0.2 | 5.1 | 0.2–5% | + (+ ≤25%) | + (+ ≤25%) | ++ (++ ≤ 75%>25%) | + (+ ≤25%) | 1.5 |  |  |  |  |  | metabolite exposure relative to 1 [6]: 120%
CC(C)C[C@H](NC(=O)[C@H](Cc1ccccc1)NC(=O)c1cnccn1)B(O)O [Bortezomib, bortezomib, reference compound] |  |  |  |  |  |  |  |  |  |  |  |  |  | IC50 [10]: 0.004 µM
COc1cccnc1-c1cnc2nc(-c3cc(NC(=O)c4oc(C)nc4C)ccc3F)nn2c1 [compound 5] |  |  |  |  |  |  |  |  | 0.07 | < 0.21 | 7 (≈ 3.22 µg/mL) | 0.56 |  | ER mouse [11]: 0.4
Cc1nc(C)c(C(=O)Nc2ccc(F)c(-c3nc4ncc(-c5ncccc5Cl)cn4n3)c2)o1 [compound 4] |  |  |  |  |  |  |  |  | 0.05 |  | 7 (≈ 3.25 µg/mL) |  | 0.1 | 
Cc1nc(C)c(C(=O)Nc2ccc(F)c(-c3nc4ncc(-c5ncccc5CO)cn4n3)c2)o1 [compound 6] | 1.5 | 1.7 | less than 10% | + (+ ≤25%) | + (+ ≤25%) | + (+ ≤25%) | + (+ ≤25%) | 1.5 | 0.5 |  |  |  | 0.07 | abundance mouse [17]: + (+ ≤25%)
Cc1nc(CO)c(C(=O)Nc2ccc(F)c(-c3nc4ncc(-c5ncccc5C)cn4n3)c2)o1 [compound 7] | 4.5 | 11 | 5–17% | + (+ ≤25%) | + (+ ≤25%) | + (+ ≤25%) | + (+ ≤25%) | 17 |  |  |  |  |  | abundance mouse [17]: + (+ ≤25%)
Cc1nc(C)c(C(=O)Nc2ccc(F)c(-c3nc4ncc(-c5ncccc5C(F)F)cn4n3)c2)o1 [compound 3] |  |  |  |  |  |  |  |  | 0.11 | 0.55 | 21 (≈ 10.1 µg/mL) | 0.57 | 0.06 | ER mouse [11]: 0.51; ER rat [18]: < 0.18
Cc1nc(C)c(C(=O)Nc2ccc(F)c(-c3nc4ncc(-c5ccccn5)cn4n3)c2)o1 [compound 2] |  |  |  |  |  |  |  |  |  | 0.3 |  | 0.46 |  | ER rat [18]: < 0.27
